Test system: 845751-090-R-J2-PDC tumor spheroid viability
Assay: Anticancer human tumor 845751-090-R-J2-PDC patient-derived head and neck squamous carcinoma cell line growth inhibition [IpAb]
Settings: spheroids with HUVEC and MSC; for IC50: curve of first compound; for viability, T/C: stronger effect = lower value; active means viability on the fitted dose curve at most 10% of control; inactive means the rest
Procedure, shortened: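 Spheroids of 60% malignant cells, 25% HUVEC and 15% MSC were exposed to targeted agents combined with ipatasertib or abemaciclib. Doses started at or near clinical Cmax (10 microM when unknown) and fell in half-log steps.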

[1] = second compound 0.1 µM, first compound 0.0316 µM
[2] = second compound 0.1 µM, first compound 0.1 µM
[3] = second compound 0.1 µM, first compound 0.316 µM
[4] = second compound 0.1 µM, first compound 1 µM
[5] = second compound 0.1 µM, first compound 3.16 µM
[6] = second compound 0.1 µM, first compound 10 µM
[7] = second compound 0.316 µM, first compound 0.0316 µM
[8] = second compound 0.316 µM, first compound 0.1 µM
[9] = second compound 0.316 µM, first compound 0.316 µM
[10] = second compound 0.316 µM, first compound 1 µM
[11] = second compound 0.316 µM, first compound 3.16 µM
[12] = second compound 0.316 µM, first compound 10 µM
[13] = second compound 1 µM, first compound 0.0316 µM
[14] = second compound 1 µM, first compound 0.1 µM
[15] = second compound 1 µM, first compound 0.316 µM
[16] = second compound 1 µM, first compound 1 µM
[17] = second compound 1 µM, first compound 3.16 µM
[18] = second compound 1 µM, first compound 10 µM
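Further: spheroids exposed to compounds for 7 days before readout.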
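Wherever viability, T/C is given: CTG3D luminescence normalised so that 100% = DMSO vehicle control.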

Cn1ncc(Cl)c1-c1cc(C(=O)NC(CN)Cc2cccc(F)c2)sc1Cl (stereo not given) + CC(C)NCC(C(=O)N1CCN(c2ncnc3c2C(C)CC3O)CC1)c1ccc(Cl)cc1
0.188 µM: IC50 (second compound 0.1 µM)
active: viability, T/C [6] 0.32% | viability, T/C [12] 0.51% | viability, T/C [18] 0.24% | viability, T/C (second compound 3.16 µM, first compound 10 µM) 0.54% | viability, T/C (second compound 10 µM, first compound 3.16 µM) 7.33% | viability, T/C (second compound 10 µM, first compound 10 µM) 0.88%
inactive: viability, T/C [1] 84.6% | viability, T/C [2] 59.2% | viability, T/C [3] 33.2% | viability, T/C [4] 37% | viability, T/C [5] 12.1% | viability, T/C [7] 46.6% | viability, T/C [8] 35.4% | viability, T/C [9] 37.3% | viability, T/C [10] 34.4% | viability, T/C [11] 13.6% | viability, T/C [13] 39.3% | viability, T/C [14] 37.9% | viability, T/C [15] 37.2% | viability, T/C [16] 27.1% | viability, T/C [17] 8.86% | viability, T/C (second compound 3.16 µM, first compound 0.0316 µM) 29% | viability, T/C (second compound 3.16 µM, first compound 0.1 µM) 27% | viability, T/C (second compound 3.16 µM, first compound 0.316 µM) 26.3% | viability, T/C (second compound 3.16 µM, first compound 1 µM) 24.2% | viability, T/C (second compound 3.16 µM, first compound 3.16 µM) 8.88% | viability, T/C (second compound 10 µM, first compound 0.0316 µM) 17.5% | viability, T/C (second compound 10 µM, first compound 0.1 µM) 16.1% | viability, T/C (second compound 10 µM, first compound 0.316 µM) 24.5% | viability, T/C (second compound 10 µM, first compound 1 µM) 13.5%
< 0.0316 µM: IC50 (second compound 0.316 µM) | IC50 (second compound 1 µM) | IC50 (second compound 3.16 µM) | IC50 (second compound 10 µM)

C=CCn1c(=O)c2cnc(Nc3ccc(N4CCN(C)CC4)cc3)nc2n1-c1cccc(C(C)(C)O)n1 + CCN1CCN(Cc2ccc(Nc3ncc(F)c(-c4cc(F)c5nc(C)n(C(C)C)c5c4)n3)nc2)CC1
8.97 µM: IC50 (second compound 0.316 µM)
inactive: viability, T/C (second compound 0.01 µM, first compound 0.0316 µM) 104% | viability, T/C (second compound 0.01 µM, first compound 0.1 µM) 68.3% | viability, T/C (second compound 0.01 µM, first compound 0.316 µM) 68.3% | viability, T/C (second compound 0.01 µM, first compound 1 µM) 57.4% | viability, T/C (second compound 0.01 µM, first compound 3.16 µM) 50.8% | viability, T/C (second compound 0.01 µM, first compound 10 µM) 48.9% | viability, T/C (second compound 0.0316 µM, first compound 0.0316 µM) 66.4% | viability, T/C (second compound 0.0316 µM, first compound 0.1 µM) 71.4% | viability, T/C (second compound 0.0316 µM, first compound 0.316 µM) 62.2% | viability, T/C (second compound 0.0316 µM, first compound 1 µM) 60.8% | viability, T/C (second compound 0.0316 µM, first compound 3.16 µM) 53.1% | viability, T/C (second compound 0.0316 µM, first compound 10 µM) 40.8% | viability, T/C [1] 66.8% | viability, T/C [2] 64.8% | viability, T/C [3] 60.8% | viability, T/C [4] 47.7% | viability, T/C [5] 50.5% | viability, T/C [6] 43.2% | viability, T/C [7] 59% | viability, T/C [8] 68.7% | viability, T/C [9] 69.2% | viability, T/C [10] 60.3% | viability, T/C [11] 59.8% | viability, T/C [12] 49.1% | viability, T/C [13] 88.9% | viability, T/C [14] 97.6% | viability, T/C [15] 83.9% | viability, T/C [16] 107% | viability, T/C [17] 95.7% | viability, T/C [18] 66.7%
4.17 µM: IC50 (second compound 0.0316 µM)
> 10 µM: IC50 (second compound 0.01 µM) | IC50 (second compound 1 µM)
2 µM: IC50 (second compound 0.1 µM)

Cn1cnc2c(F)c(Nc3ccc(Br)cc3Cl)c(C(=O)NOCCO)cc21 + CCN1CCN(Cc2ccc(Nc3ncc(F)c(-c4cc(F)c5nc(C)n(C(C)C)c5c4)n3)nc2)CC1
inactive: viability, T/C (second compound 0.01 µM, first compound 0.00949 µM) 198% | viability, T/C (second compound 0.01 µM, first compound 0.03 µM) 194% | viability, T/C (second compound 0.01 µM, first compound 0.0949 µM) 139% | viability, T/C (second compound 0.01 µM, first compound 0.3 µM) 129% | viability, T/C (second compound 0.01 µM, first compound 0.949 µM) 109% | viability, T/C (second compound 0.01 µM, first compound 3 µM) 69.8% | viability, T/C (second compound 0.0316 µM, first compound 0.00949 µM) 171% | viability, T/C (second compound 0.0316 µM, first compound 0.03 µM) 148% | viability, T/C (second compound 0.0316 µM, first compound 0.0949 µM) 125% | viability, T/C (second compound 0.0316 µM, first compound 0.3 µM) 107% | viability, T/C (second compound 0.0316 µM, first compound 0.949 µM) 89.3% | viability, T/C (second compound 0.0316 µM, first compound 3 µM) 71.5% | viability, T/C (second compound 0.1 µM, first compound 0.00949 µM) 147% | viability, T/C (second compound 0.1 µM, first compound 0.03 µM) 137% | viability, T/C (second compound 0.1 µM, first compound 0.0949 µM) 135% | viability, T/C (second compound 0.1 µM, first compound 0.3 µM) 106% | viability, T/C (second compound 0.1 µM, first compound 0.949 µM) 82.3% | viability, T/C (second compound 0.1 µM, first compound 3 µM) 63.8% | viability, T/C (second compound 0.316 µM, first compound 0.00949 µM) 163% | viability, T/C (second compound 0.316 µM, first compound 0.03 µM) 150% | viability, T/C (second compound 0.316 µM, first compound 0.0949 µM) 136% | viability, T/C (second compound 0.316 µM, first compound 0.3 µM) 128% | viability, T/C (second compound 0.316 µM, first compound 0.949 µM) 101% | viability, T/C (second compound 0.316 µM, first compound 3 µM) 97.2% | viability, T/C (second compound 1 µM, first compound 0.00949 µM) 159% | viability, T/C (second compound 1 µM, first compound 0.03 µM) 167% | viability, T/C (second compound 1 µM, first compound 0.0949 µM) 138% | viability, T/C (second compound 1 µM, first compound 0.3 µM) 114% | viability, T/C (second compound 1 µM, first compound 0.949 µM) 107% | viability, T/C (second compound 1 µM, first compound 3 µM) 64%
> 3 µM: IC50 (second compound 0.01 µM) | IC50 (second compound 0.0316 µM) | IC50 (second compound 0.1 µM) | IC50 (second compound 0.316 µM) | IC50 (second compound 1 µM)

From PubChem BioAssay AID2060333 (Molecular Pharmacology Branch, DTP, NCI, 2025)
